In US20050261330A1, “Derivatives of 2,2,4-trisubstituted tetrahydrofuran an antifungal agents” (priority 2002, published 2005):
Converted amounts (≈) assume the structure as drawn.

How the values were obtained:
[1] = tested on: Cryptococcus neoformans I; experiment: MIC, NCCLS M27A broth dilution; type: cell-based; settings: RPMI 1640, MOPS pH 7
[2] = tested on: Candida albicans ATCC 36082; experiment: MIC, NCCLS M27A broth dilution; type: cell-based; settings: RPMI 1640, MOPS pH 7
[3] = tested on: Aspergillus fumigatus Si-I; experiment: MIC, NCCLS M38P broth dilution; type: cell-based; settings: RPMI 1640, MOPS pH 7
[4] = tested on: Candida parapsilosis ATCC 22019 (QC); experiment: MIC, NCCLS M27A broth dilution; type: cell-based; settings: RPMI 1640, MOPS pH 7
[5] = tested on: Candida brusei ATCC 6258 (QC); experiment: MIC, NCCLS M27A broth dilution; type: cell-based; settings: RPMI 1640, MOPS pH 7
[6] = tested on: Paecilomyces variotti ATCC 22319 (QC); experiment: MIC, NCCLS broth dilution; type: cell-based; settings: RPMI 1640, MOPS pH 7
[7] = tested on: Candida tropicalis ATCC 750; experiment: MIC, NCCLS M27A broth dilution; type: cell-based; settings: RPMI 1640, MOPS pH 7
Candida glabrata 90030 = experiment: MIC, NCCLS M27A broth dilution; type: cell-based; settings: RPMI 1640, MOPS pH 7
Candida albicans Y-01-19 = experiment: MIC, NCCLS M27A broth dilution; type: cell-based; settings: RPMI 1640, MOPS pH 7
[8] = tested on: Aspergillus fumigatus 1008; experiment: MIC, NCCLS M38P broth dilution; type: cell-based; settings: RPMI 1640, MOPS pH 7
Candida krusel 766.1 = experiment: MIC, NCCLS M27A broth dilution; type: cell-based; settings: RPMI 1640, MOPS pH 7
Histoplasma capsulatum = type: cell-based; settings: RPMI 1640, MOPS pH 7
[9] = tested on: Cryptococcus neoformans M 106; experiment: MIC, NCCLS M27A broth dilution; type: cell-based; settings: RPMI 1640, MOPS pH 7
Candida albicans 1162 = experiment: MIC, NCCLS M27A broth dilution; type: cell-based; settings: RPMI 1640, MOPS pH 7
Candida albicans 1122 = experiment: MIC, NCCLS M27A broth dilution; type: cell-based; settings: RPMI 1640, MOPS pH 7
ergosterol P450DM [10] = settings: A. fumigatus lysates; relative to fluconazole; cited from earlier work
ergosterol P450DM [11] = target: T1, ergosterol P450DM (Candida albicans, UniProt P10613); settings: C. albicans lysates; relative to fluconazole; cited from earlier work
T1 construct: host or cells: C. albicans lysates
T1 sequence (P10613 whole entry): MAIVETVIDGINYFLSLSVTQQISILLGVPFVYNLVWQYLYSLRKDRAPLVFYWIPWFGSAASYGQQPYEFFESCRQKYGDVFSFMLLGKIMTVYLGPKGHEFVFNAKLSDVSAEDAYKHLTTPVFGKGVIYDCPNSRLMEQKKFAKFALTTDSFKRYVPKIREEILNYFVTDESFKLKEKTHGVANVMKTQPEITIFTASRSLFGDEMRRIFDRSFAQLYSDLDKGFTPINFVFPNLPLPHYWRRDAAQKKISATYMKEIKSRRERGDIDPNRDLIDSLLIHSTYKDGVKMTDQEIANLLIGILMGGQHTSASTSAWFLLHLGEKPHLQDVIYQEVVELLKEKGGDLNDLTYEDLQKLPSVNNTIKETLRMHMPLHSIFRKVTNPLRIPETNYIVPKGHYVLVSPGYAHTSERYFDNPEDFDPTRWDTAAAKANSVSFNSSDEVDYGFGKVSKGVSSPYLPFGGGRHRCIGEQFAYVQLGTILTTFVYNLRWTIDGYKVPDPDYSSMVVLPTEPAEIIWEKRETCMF

Compound	MIC [1]	MIC [2]	MIC [3]	MIC [4]	MIC [5]	MIC [6]	MIC [7]	MIC (Candida glabrata 90030)	MIC (Candida albicans Y-01-19)	MIC [8]	MIC (Candida krusel 766.1)	MIC (Histoplasma capsulatum)	MIC [9]	MIC (Candida albicans 1162)	MIC (Candida albicans 1122)	greater inhibition of ergosterol P450DM compared to fluconazole (ergosterol P450DM [10])	greater inhibition of ergosterol P450DM compared to fluconazole (ergosterol P450DM [11])
2-[(5R,3S)-5-(2,4-Difluorophenyl)-tetrahydro-5-(1H-1,2,4-triazol-1yl-methyl)-furan-3-yl-methyl]-4-[4-(phenyl)-1,2,4-triazol-1-yl]-2,4-dihydro-3(2H,4H)-1,2,4-triazolone [Compound No. 2]	8 µg/mL	0.125 µg/mL	16 µg/mL	8 µg/mL	8 µg/mL	8 µg/mL	0.5 µg/mL	16 µg/mL	16 µg/mL	16 µg/mL	16 µg/mL	16 µg/mL	8 µg/mL				
2-[(5R,3S)-5-(2,4-Difluorophenyl)-tetrahydro-5-(1H-1,2,4-triazol-1yl-methyl)-furan-3-yl-methyl]-4-{4-[4-(phenyl)-1-piperazinyl]-chlorophenyl}-2,4-dihydro-3(2H,4H-1,2,4-triazolone [Compound No. 5]	< 0.03 µg/mL	0.03 µg/mL	1 µg/mL	0.03 µg/mL	0.25 µg/mL	1 µg/mL	0.03 µg/mL	1 µg/mL	0.125 µg/mL	2 µg/mL	1 µg/mL	0.25 µg/mL	0.125 µg/mL				
O=c1n(-c2ccc(O)cc2)cnn1C[C@H]1CO[C@@](Cn2cncn2)(c2ccc(F)cc2F)C1 [Compound No. 3]	8 µg/mL (≈ 17.6 µM)	16 µg/mL (≈ 35.2 µM)	> 16 µg/mL	16 µg/mL (≈ 35.2 µM)	16 µg/mL (≈ 35.2 µM)	> 16 µg/mL	16 µg/mL (≈ 35.2 µM)	16 µg/mL (≈ 35.2 µM)	8 µg/mL (≈ 17.6 µM)	> 16 µg/mL	16 µg/mL (≈ 35.2 µM)	16 µg/mL (≈ 35.2 µM)	8 µg/mL (≈ 17.6 µM)				
O=c1n(-c2ccc(Cn3cncn3)cc2)cnn1C[C@@H]1CO[C@@](Cn2cncn2)(c2ccc(F)cc2F)C1 [Compound No. 4]	8 µg/mL (≈ 15.4 µM)	2 µg/mL (≈ 3.85 µM)	16 µg/mL (≈ 30.8 µM)	8 µg/mL (≈ 15.4 µM)	16 µg/mL (≈ 30.8 µM)	16 µg/mL (≈ 30.8 µM)	16 µg/mL (≈ 30.8 µM)	16 µg/mL (≈ 30.8 µM)	16 µg/mL (≈ 30.8 µM)	16 µg/mL (≈ 30.8 µM)	16 µg/mL (≈ 30.8 µM)	16 µg/mL (≈ 30.8 µM)	8 µg/mL (≈ 15.4 µM)				
O=c1n(-c2ccc(OCc3ccccc3)cc2)cnn1C[C@H]1CO[C@@](Cn2cncn2)(c2ccc(F)cc2F)C1 [Compound No. 6, 2-[(5R,3S)-5-(2,4-Difluorophenyl)-tetrahydro-5-(1H-1,2,4-triazol-1yl-methyl)-furan-3-yl-methyl]-4-[4-(benzyloxy)-phenyl]-2,4-dihydro-3(2H,4H)-1,2,4-triazolone]	2 µg/mL (≈ 3.67 µM)	0.03 µg/mL (≈ 0.0551 µM)	16 µg/mL (≈ 29.4 µM)	0.25 µg/mL (≈ 0.459 µM)	4 µg/mL (≈ 7.35 µM)	16 µg/mL (≈ 29.4 µM)	0.06 µg/mL (≈ 0.11 µM)	2 µg/mL (≈ 3.67 µM)	1 µg/mL (≈ 1.84 µM)	16 µg/mL (≈ 29.4 µM)	8 µg/mL (≈ 14.7 µM)	0.5 µg/mL (≈ 0.918 µM)	2 µg/mL (≈ 3.67 µM)				
O=c1n(-c2ccc(N3CCN(c4ccc(OCc5ccccc5)cc4)CC3)cc2)cnn1C[C@H]1CO[C@@](Cn2cncn2)(c2ccc(F)cc2F)C1 [Compound No. 7, 2-[(5R,3S)-5-(2,4-Difluorophenyl)-tetrahydro-5-(1H-1,2,4-triazol-1yl-methyl)-furan-3-yl-methyl]-4-{4-[4-[4-(benzyloxy)-phenyl]-1-piperazinyl]-phenyl}-2,4-dihydro-3(2H,4H)-1,2,4-triazolone]	0.06 µg/mL (≈ 0.0851 µM)	< 0.03 µg/mL	16 µg/mL (≈ 22.7 µM)	0.125 µg/mL (≈ 0.177 µM)	8 µg/mL (≈ 11.4 µM)	1 µg/mL (≈ 1.42 µM)	0.125 µg/mL (≈ 0.177 µM)	16 µg/mL (≈ 22.7 µM)	16 µg/mL (≈ 22.7 µM)	16 µg/mL (≈ 22.7 µM)	16 µg/mL (≈ 22.7 µM)	16 µg/mL (≈ 22.7 µM)	0.125 µg/mL (≈ 0.177 µM)				
O=c1n(-c2ccc(-n3cnnn3)cc2)cnn1C[C@@H]1CO[C@@](Cn2cncn2)(c2ccc(F)cc2F)C1 [Compound No. 9, 2-[(5R,3R)-5-(2,4-Difluorophenyl)-tetrahydro-5-(1H-1,2,4-triazol-1yl-methyl)-furan-3-yl-methyl]-4-[4-(1,2,3,4-tetrazol-1-yl)-phenyl]-2,4-dihydro-3(2H,4H)-1,2,4-triazolone]	32 µg/mL (≈ 63.2 µM)		≧128 g/ml	16 µg/mL (≈ 31.6 µM)	64 µg/mL (≈ 126 µM)	32 µg/mL (≈ 63.2 µM)	8 µg/mL (≈ 15.8 µM)	64 µg/mL (≈ 126 µM)	64 µg/mL (≈ 126 µM)	> 128 µg/mL	64 µg/mL (≈ 126 µM)	64 µg/mL (≈ 126 µM)	8 µg/mL (≈ 15.8 µM)	64 µg/mL (≈ 126 µM)	4 µg/mL (≈ 7.9 µM)		
C[C@@H](c1ncncc1F)[C@](O)(Cn1cncn1)c1ccc(F)cc1F [Voriconazole]																160 fold	1.6 fold
